Test results reported in US20040167330A1, “Novel chelating agents and conjugates thereof, their synthesis and use as diagnois and therapeutic agents” (priority 2004, published 2004).

Assays:
Format in all cases: physicochemical
[1] = Formation of ^90Y-yttrium complex, radiochemical yield by TLC/HPLC; conditions: for radiochemical yield: 25° C.
Protocol: Purified DO3A-P^BnNH2 was dissolved in demineralised water at a concentration of 9×10^−5 mol/l. 0.1 ml of this solution were transferred into a small reaction vial (PE). 0.1 ml ^90Y-yttrium chloride (YCl3) in 0.1 M HCl and 0.1 ml ammonium acetate buffer, pH 5.7, were added. The reaction solutions were mixed well. pH values were measured continuously while preparing the solution. 24 identical solutions were prepared accordingly and stored at 25° C. and 37° C. respectively.
Samples were taken after 15 min, 30 min, 45 min, 60 min, 90 min and 120 min and analyzed by thin layer chromatography using silica gel (POLYGRAM SIL G/UV254) or, preferably, paper (Whatman No. 1) as solid phase. TLC was run using either solvent I: 0.1 N ammonium acetate solution or solvent II: 3% sodium chloride solution as developing solution. In parallel, samples (20 μl) were analyzed by gel filtration using HPLC. The HPLC-system comprised a gamma detector (Berthold LB 506) and a UV/VIS spectrometer (Waters 486) installed in two flow through cells, respectively.
Temperature- and time-dependent studies have shown a very short reaction time for the complex formation of a ^90Y-Yttrium-DO3A-complex.
Furthermore, the effect of pH and ligand concentration on radiochemical yield was evaluated. Table 5 summarizes the results relating to the variation of pH between pH 2.0 and pH 8.9 while maintaining a constant ratio of DO3A-P^BnNH2 and Y of 3:1 and a reaction time of 60 min at 25° C. Accordingly, best labeling results are achieved at pH values of 4.9-8.0. Table 6 summarizes the results relating to the variation of the ligand concentration DO3A-P^BnNH2: Y between 1:1 up to 7:1 while maintaining a constant pH range (pH 5.2) and reaction time of 60 min at 25° C.

[2] = as above; conditions: reaction time 0 min; 25° C.; [Y] = 1,2 · 10^−3 mol/l; ratio of ligand: Y = 1:1; pH = 5.5
[3] = Relaxation measurements of gadolinium(III) complex solutions; conditions: gadolinium(III) complex prepared in solution from GdCl3.6H2O; approx. pH 7; at 10 MHz
Protocol: Solution was stirred for 1 h at room temperature and pH was set to approx. pH 7 by careful addition of solid KOH. Thus prepared solution as well as other solutions of different concentration which were prepared by a similar approach (all containing known amount of water and gadolinium(III)) were used for relaxation measurements. The solutions gave relaxivity 7.86 mmol^−1 s^−1 (at 10 MHz).
Solution of gadolinium(III) complex of compound 1 for relaxation measurements were prepared similarly to Example 51. The solutions gave relaxivity 7.54 mmol-1 s^−1 (at 10 MHz). Exchange half-life of coordinated water molecule 70 ns was determined (from temperature dependence of ^17O NMR parameters).

## Nc1ccc(CP(=O)(O)CN2CCN(CC(=O)O)CCN(CC(=O)O)CCN(CC(=O)O)CC2)cc1 [Compound 11]
[1]; ^90Y, ratio of DO3A-P^BnNH2 and Y of 3:1, reaction time of 60 min at 25° C., pH varied 2.0 to 8.9
  pH values at which best labeling results are achieved: 4.9-8.0
[1]; ratio of ligand:Y 1:1, [Y] = 1.2 · 10^−3 mol/l, pH = 5.2, reaction time 60 min
  radiochemical yield: 94%
[1]; reaction time 15 min, [Y] = 1,2 · 10^−3 mol/l, ratio of ligand: Y = 1:1, pH = 5.5
  radiochemical yield: 97%
[2]
  radiochemical yield: 88%
[3]
  relaxivity: 7.86 mmol⁻¹ s⁻¹
